Measured values reported in DBAASP.
≈ marks a conversion by molar mass, not a printed value. Each block holds one compound with its values, some of them ahead of it.

Columns and labels:
Test in all cases: ≥ marks a high value that may be exact or a test limit, other limits are often not marked, values filed in µg/mL are converted to µM
[1] = system: Staphylococcus aureus USA 300
[2] = system: Klebsiella aerogenes LMG 02094
[3] = system: Staphylococcus aureus ATCC 29213
[4] = system: Mycobacterium tuberculosis H37Rv
[5] = system: Salmonella enterica serovar Typhimurium
[6] = system: Klebsiella pneumoniae LMG 20218
[7] = system: Pseudomonas aeruginosa ATCC 9027
[8] = system: Trichosporon beigelii KCTC 7707
[9] = system: Escherichia coli ATCC 25922
[10] = system: Pseudomonas aeruginosa H103
[11] = system: Pseudomonas aeruginosa LMG 6395
[12] = system: Staphylococcus aureus USA 100
Escherichia coli UB1005 = system: Escherichia coli UB1005
[13] = system: Candida parapsilosis ATCC 22019
[14] = system: Malassezia furfur KCTC 7744
[15] = system: Staphylococcus aureus ATCC 25923
[16] = system: Pseudomonas aeruginosa PAO1 H103
[17] = system: Staphylococcus epidermidis
[18] = system: Acinetobacter baumannii LMG 01041
[19] = system: Enterococcus faecalis ATCC 29212
Candida albicans = system: Candida albicans
[20] = system: Escherichia coli LMG 15862
[21] = system: Bacillus subtilis KCCM 11495
[22] = system: Escherichia coli KCCM 11569
[23] = system: Bacillus subtilis ATCC 6633
[24] = system: Staphylococcus epidermidis ATCC 12228
[25] = system: Staphylococcus aureus KCTC 3881
[26] = system: Micrococcus luteus ATCC 4698
[27] = system: Klebsiella pneumoniae ATCC 10031
[28] = system: Escherichia coli KCTC 2433
[29] = system: Proteus mirabilis ATCC 25933
[30] = system: Candida albicans ATCC 36232
[31] = system: Shigella dysenteriae ATCC 9752
Acinetobacter sp. = system: Acinetobacter sp.
Staphylococcus aureus = system: Staphylococcus aureus
Klebsiella pneumoniae = system: Klebsiella pneumoniae
Escherichia coli = system: Escherichia coli
Citrobacter sp. = system: Citrobacter sp.
Pseudomonas aeruginosa = system: Pseudomonas aeruginosa
[32] = system: Pseudomonas aeruginosa ATCC 27853
Pseudomonas sp. = system: Pseudomonas sp.
Bacillus subtilis = system: Bacillus subtilis

- MIC [1]: 6.25 µM (≈ 7.4 µg/mL)
- MIC [2]: 5 µM (≈ 5.92 µg/mL)
- MIC [3]: 6.75 µM (≈ 7.99 µg/mL)
- MIC [4]: 2.2 µM (≈ 2.6 µg/mL)
- MIC [5]: 6.75 µM (≈ 7.99 µg/mL)
- MIC [6]: 6 µM (≈ 7.1 µg/mL)
- MIC [7]: 12.5 µM (≈ 14.8 µg/mL)
- MIC [8]: 12.5 µM (≈ 14.8 µg/mL)
- MIC [9]: 3.38 µM (≈ 4 µg/mL)
- MIC [10]: 6.75 µM (≈ 7.99 µg/mL)
- MIC [11]: 3 µM (≈ 3.55 µg/mL)
- MIC [12]: 6.25 µM (≈ 7.4 µg/mL)
- MIC (Escherichia coli UB1005): 1.69 µM (≈ 2 µg/mL)
- MIC [13]: 12.5 µM (≈ 14.8 µg/mL)
- MIC [14]: 25 µM (≈ 29.6 µg/mL)
- MIC [15]: 1.69 µM (≈ 2 µg/mL)
- MIC [16]: 3.38 µM (≈ 4 µg/mL)
- MIC [17]: 1.69 µM (≈ 2 µg/mL)
- MIC [18]: 2 µM (≈ 2.37 µg/mL)
- MIC [19]: 1.69 µM (≈ 2 µg/mL)
- MIC (Candida albicans): 6.75 µM (≈ 7.99 µg/mL)
- MIC [20]: 3 µM (≈ 3.55 µg/mL)
SMILES: CC[C@H](C)[C@H](NC(=O)[C@@H](NC(=O)[C@H](Cc1c[nH]c2ccccc12)NC(=O)[C@@H](NC(=O)[C@@H](N)CCCN=C(N)N)[C@@H](C)CC)C(C)C)C(=O)N[C@@H](Cc1c[nH]c2ccccc12)C(=O)N[C@@H](CCCN=C(N)N)C(=O)N[C@@H](CCCN=C(N)N)C(N)=O [RIWVIWRR]

- MIC [21]: 6.48 µM (≈ 11.3 µg/mL)
- MIC [22]: 25.9 µM (≈ 45.2 µg/mL)
SMILES: CC(C)C[C@H](NC(=O)CNC(=O)[C@H](Cc1cnc[nH]1)NC(=O)[C@H](Cc1cnc[nH]1)NC(=O)[C@H](CC(C)C)NC(=O)[C@H](CC(C)C)NC(=O)[C@H](C)NC(=O)[C@H](CC(N)=O)NC(=O)[C@H](CC(C)C)NC(=O)[C@@H](N)Cc1c[nH]c2ccccc12)C(=O)N[C@@H](CC(N)=O)C(=O)N[C@@H](CS)C(=O)N[C@@H](C)C(=O)N[C@@H](CCCCN)C(=O)NCC(=O)N[C@H](C(N)=O)C(C)C [WLNALLHHGLNCAKGV]

- MIC [23]: 26.2 µM (≈ 49.9 µg/mL)
- MIC [24]: 31.5 µM (≈ 59.9 µg/mL)
- MIC [7]: > 52.5 µM
- MIC [25]: 13.1 µM (≈ 25 µg/mL)
- MIC [26]: 6.56 µM (≈ 12.5 µg/mL)
- MIC [27]: ≥ 52.5 µM
- MIC [28]: ≥ 52.5 µM
- MIC [29]: ≥ 52.5 µM
- MIC [30]: ≥ 52.5 µM
- MIC [31]: ≥ 52.5 µM
SMILES: CC[C@H](C)[C@H](NC(=O)[C@H](CC(C)C)NC(=O)[C@@H](N)Cc1ccccc1)C(=O)NCC(=O)N[C@@H](CCSC)C(=O)N[C@H](C(=O)N[C@@H](Cc1cnc[nH]1)C(=O)NCC(=O)N[C@@H](CC(C)C)C(=O)N[C@H](C(=O)N[C@H]1CSSC[C@@H](C(=O)O)NC(=O)[C@H](CCCCN)NC(=O)[C@H](CCCN=C(N)N)NC(=O)[C@H](CO)NC(=O)[C@H]([C@@H](C)CC)NC(=O)[C@H](CC(C)C)NC1=O)[C@@H](C)CC)[C@@H](C)O [FLIGMTHGLICLISRKC]

- MIC (Acinetobacter sp.): 2 µM (≈ 5.24 µg/mL)
- MIC (Staphylococcus aureus): 4 µM (≈ 10.5 µg/mL)
- MIC (Klebsiella pneumoniae): 2.83 µM (≈ 7.42 µg/mL)
- MIC [9]: 2 µM (≈ 5.24 µg/mL)
- MIC (Escherichia coli): 2 µM (≈ 5.24 µg/mL)
- MIC (Citrobacter sp.): 2 µM (≈ 5.24 µg/mL)
- MIC (Pseudomonas aeruginosa): 2 µM (≈ 5.24 µg/mL)
- MIC [32]: 2 µM (≈ 5.24 µg/mL)
- MIC (Pseudomonas sp.): 2 µM (≈ 5.24 µg/mL)
- MIC [15]: 2 µM (≈ 5.24 µg/mL)
- MIC (Bacillus subtilis): 2 µM (≈ 5.24 µg/mL)
SMILES: CC[C@H](C)[C@H](NC(=O)[C@H](CC(C)C)NC(=O)[C@H](CCCN=C(N)N)NC(=O)[C@H](CC(C)C)NC(=O)[C@H](CCCCN)NC(=O)CN)C(=O)N[C@@H](CCCCN)C(=O)N[C@@H](CCCCN)C(=O)N[C@@H](CC(C)C)C(=O)N[C@@H](Cc1c[nH]c2ccccc12)C(=O)N[C@H](C(=O)N[C@@H](CCCCN)C(=O)N[C@@H](CCCCN)C(=O)N[C@@H](Cc1c[nH]c2ccccc12)C(=O)N[C@@H](CCCCN)C(=O)N[C@@H](CCCCN)C(=O)N[C@@H](CCCCN)C(=O)NCC(=O)N[C@@H](Cc1c[nH]c2ccccc12)C(=O)N[C@@H](CCCCN)C(=O)N[C@@H](C)C(N)=O)C(C)C [GKLRLIKKLWVKKWKKKGWKA]
